Source: paper PMC8073686, “Characterization of Subtype Selective Cannabinoid CB2 Receptor Agonists as Potential Anti-Inflammatory Agents” (Pharmaceuticals, 2021)

Experiments:
Format in all cases: cell-based, human
[1] = tested on: IL-2 mRNA in Jurkat cells; experiment: PHA/PMA-induced IL-2 mRNA in Jurkat cells (RT-PCR)
Protocol: (§1) Activation of CB2 is known to have anti-inflammatory effects. There are some studies reporting that CB2 agonists decrease cytokine production in immune cells. We also reported that the cannabinoid receptor agonist CP55,940 and ABK5 inhibit cytokine production in the human T cell lines Jurkat and MOLT-4 [24]. Since ABK5-1 and 5-2 were confirmed to be CB2-subtype selective agonists, we were interested to determine whether these compounds also have anti-inflammatory effects. Note, although ABK5-6 had marginally better binding affinity to CB2, it bound to CB1 […] (i.e., micromolar range). Therefore ABK5-6 was not selected for further evaluations. We first tested the change of IL-2 and TNF-α mRNA levels in Jurkat cells. […] To test if these mRNA changes are reflected in the protein levels of cytokines, the IL-2 and TNF-α concentration in the cell culture medium were measured by ELISA. […] Unlike ABK5-1, at 3 h of treatment, the lowest concentration of ABK5-2 used caused the IL-2 mRNA decrease. […] On the other hand, TNF-α mRNA decreased by 45% at 10 μM ABK5-2 after 3 h of treatment (Figure 4E, black columns). […] These mRNA level changes were similar to that of ABK5-1, except ABK5-2 caused a stronger inhibitory effect on expression of TNF-α mRNA. […] Consistent with the mRNA levels, the inhibitory effect of ABK5-2 on TNF-α production was stronger than that of ABK5-1.
Figure 4 Effect of ABK5-1 and ABK5-2 on phytohemagglutinin (PHA)/phorbol 12-myristate 13-acetate (PMA)-induced cytokine production in T cells. Jurkat cells were pretreated with DMSO (<0.1%; indicated as 0 μM) or various concentrations of ABK5-1 (A–D) or ABK5-2 (E–H) and stimulated with PHA and PMA. IL-2 and TNF-α mRNA levels were determined by real-time PCR (RT-PCR) after ABK5-1 treatment and (A) 3 h and (B) 24 h of PHA/PMA (phytohemagglutinin/phorbol 12-myristate 13-acetate) stimulation. Protein levels of (C) IL-2 and (D) TNF-α were also examined after 24 h of stimulation. IL-2 and TNF-α mRNA were also examined after ABK5-2 treatment and (E) 3 h and (F) 24 h of stimulation, and protein levels of (G) IL-2 and (H) TNF-α were measured after 24 h stimulation. Results are indicated as the mean ± S.D. of three independent assays performed in triplicate for each concentration. One-way ANOVA and Dunnett’s post-hoc test were used and * p < 0.05, ** p < 0.01, *** p < 0.005, **** p < 0.0001 (versus reference).
For cytokine analysis, 0.75 × 10^6 Jurkat cells per well were seeded in 12-well cell culture plates and treated with compounds at a concentration between 0.1 to 10 μM and incubated for 30 min at 37 °C. Then cells were stimulated for cytokine production with PHA (1 μg/mL) and PMA (12.5 ng/mL), for 3 and 24 h. After stimulation, cells were harvested for RNA analysis and the culture supernatant was used for measurement of IL-2 and TNF-α concentrations by human IL-2 and TNF-α ELISA kits (Thermo Fisher Scientific; Waltham, MA, USA) according to the manufacturer instructions.
Jurkat cells were lysed and total RNA was extracted using TRIzol Reagent (Life Technologies, Carlsbad, CA, USA) followed by reverse transcription by a High-Capacity cDNA Reverse Transcription kit (Life Technologies, Carlsbad, CA, USA) according to the manufacturer’s instructions. Quantitative real-time PCR was performed using an Applied Biosystems 7500 Fast Real-Time PCR system in a 10 μL reaction volume containing 2 μL diluted cDNA and 0.5 μM each of forward and reverse primers, and PowerUp SYBR Green Master Mix (Life Technologies, Carlsbad, CA, USA). Primers used in the reaction were as follows: human 36B4 forward, 5′-[…]-3′, and human 36B4 reverse, 5′-[…]-3′, and human IL-2 forward, 5′-[…]-3′, and human IL-2 reverse, 5′-[…]-3′, and human TNF-α forward, 5′-[…]′, human TNF-α reverse, 5′-[…]-3′. The PCR cycles are as follows: 50 °C for 2 min, 95 °C for 2 min, 40 cycles of 95 °C for 3 sec and 60 °C for 30 s. […]

[2] = tested on: IL-2 production in Jurkat cells; experiment: PHA/PMA-induced IL-2 production in Jurkat cells (ELISA of culture medium); conditions: 10 μM, 24 h
Protocol: Activation of CB2 is known to have anti-inflammatory effects. There are some studies reporting that CB2 agonists decrease cytokine production in immune cells. We also reported that the cannabinoid receptor agonist CP55,940 and ABK5 inhibit cytokine production in the human T cell lines Jurkat and MOLT-4 [24]. Since ABK5-1 and 5-2 were confirmed to be CB2-subtype selective agonists, we were interested to determine whether these compounds also have anti-inflammatory effects. Note, although ABK5-6 had marginally better binding affinity to CB2, it bound to CB1 very, very weakly (i.e., micromolar range). Therefore ABK5-6 was not selected for further evaluations. […] To test if these mRNA changes are reflected in the protein levels of cytokines, the IL-2 and TNF-α concentration in the cell culture medium were measured by ELISA. […]
Figure 4 Effect of ABK5-1 and ABK5-2 on phytohemagglutinin (PHA)/phorbol 12-myristate 13-acetate (PMA)-induced cytokine production in T cells. […] IL-2 and TNF-α mRNA levels were determined by real-time PCR (RT-PCR) after ABK5-1 treatment and (A) 3 h and (B) 24 h of PHA/PMA (phytohemagglutinin/phorbol 12-myristate 13-acetate) stimulation. […] IL-2 and TNF-α mRNA were also examined after ABK5-2 treatment and (E) 3 h and (F) 24 h of stimulation, and protein levels of (G) IL-2 and (H) TNF-α were measured after 24 h stimulation. […]

[3] = tested on: TNF-α mRNA in Jurkat cells; experiment: PHA/PMA-induced TNF-α mRNA in Jurkat cells (RT-PCR); conditions: 10 μM
Protocol: as §1
Figure 4 Effect of ABK5-1 and ABK5-2 on phytohemagglutinin (PHA)/phorbol 12-myristate 13-acetate (PMA)-induced cytokine production in T cells. Jurkat cells were pretreated with DMSO (<0.1%; indicated as 0 μM) or various concentrations of ABK5-1 (A–D) or ABK5-2 (E–H) and stimulated with PHA and PMA. IL-2 and TNF-α mRNA levels were determined by real-time PCR (RT-PCR) after ABK5-1 treatment and (A) 3 h and (B) 24 h of PHA/PMA (phytohemagglutinin/phorbol 12-myristate 13-acetate) stimulation. Protein levels of (C) IL-2 and (D) TNF-α were also examined after 24 h of stimulation. IL-2 and TNF-α mRNA were also examined after ABK5-2 treatment and (E) 3 h and (F) 24 h of stimulation, and protein levels of (G) IL-2 and (H) TNF-α were measured after 24 h stimulation. […]
Jurkat cells were lysed and total RNA was extracted using TRIzol Reagent (Life Technologies, Carlsbad, CA, USA) followed by reverse transcription by a High-Capacity cDNA Reverse Transcription kit (Life Technologies, Carlsbad, CA, USA) according to the manufacturer’s instructions. Quantitative real-time PCR was performed using an Applied Biosystems 7500 Fast Real-Time PCR system in a 10 μL reaction volume containing 2 μL diluted cDNA and 0.5 μM each of forward and reverse primers, and PowerUp SYBR Green Master Mix (Life Technologies, Carlsbad, CA, USA). […]

[4] = 0.1 μM, 3 h PHA/PMA stimulation

| Compound | decrease of IL-2 mRNA [1, 4] | decrease of IL-2 mRNA ([1]; 1 μM, 3 h PHA/PMA stimulation) | decrease of IL-2 mRNA ([1]; 1 μM, 24 h) | decrease of IL-2 mRNA ([1]; 10 μM, 3 h PHA/PMA stimulation) [%] | decrease of IL-2 mRNA ([1]; 10 μM, 24 h) | decrease of IL-2 production (protein, ELISA) [2] | decrease of TNF-α mRNA ([3]; 3 h PHA/PMA stimulation) [%] | decrease of TNF-α mRNA ([3]; 24 h) |
| --- | --- | --- | --- | --- | --- | --- | --- | --- |
| CCOC(=O)c1ccccc1NC(=O)CN(c1ccc(C)cc1C)S(=O)(=O)c1ccccc1 [ABK5-1] | did not show a significant decrease | about 17% | about 14% | ~46 | ~67% | about 42% | 35 | 50% |
| CCOC(=O)c1ccccc1NC(=O)CN(c1c(C)cccc1C)S(=O)(=O)c1ccccc1 [ABK5-2] | about 20% | ~15% |  | ~46 | about 65% | about 42% | 45 | about 60% |
